The values below come from US20030003396A1, “Optical data carrier comprising a merocyanine dye as light-absorbent compound in the information layer” (priority 2001, published 2003).

Marks after values point to notes of the source that are not given here.

The nature of this data set: UV absorption spectra measured in solution. Type of data set: physicochemical. An excerpt:
In the case of a write-once optical data carrier according to the invention which is written on and read by means of the light of a blue laser, preference is given to merocyanine dyes whose absorption maximum λmax1 is in the range from 340 to 410 nm, […] half of the […] one tenth of the absorbance value at λmax1 are preferably not more than 50 nm apart. Such a merocyanine dye preferably has no longer-wavelength maximum λmax2 up to a wavelength of 500 nm, particularly preferably up to 550 nm, very particularly preferably up to 600 nm.
The absorption spectra are measured, for example, in solution.
Suitable merocyanines having the required spectral properties are, in particular, those in which the dipole moment change Δμ=|μg−μag|, i.e. the positive difference between the dipole moments in the ground state and in the first excited state, is very small, preferably <5 D, particularly preferably <2 D. A method of determining such a dipole moment change Δμ is described, for example, in F. Würthner et al., Angew. Chem. 1997, 109, 2933, and in the literature cited therein. A low solvent-induced wavelength shift (dioxane/DMF) is likewise a suitable selection criterion. Preference is given to merocyanines whose solvent-induced wavelength shift Δλ=|λDMF−λdioxane|, i.e. the positive difference between the absorption wavelengths in the solvents dimethylformamide and dioxane, is <20 nm, particularly preferably <10 nm, very particularly preferably <5 nm

Setting [1] is: Table 1, on the short wavelength flank.
[2] abbreviates: Table 1, on the long wavelength flank.
Setting [3] is: Table 2, on the short wavelength flank.
Setting [4] is: Table 2, on the long wavelength flank.

`CN(C)c1ncc(C(C#N)=C(C#N)C#N)s1` [Example 5] registered a ε (Table 1) of 40990 L/mol/cm. Further, the λmax (Table 1, in dioxane) was determined as 470 nm. Also, the λ1/2-λ1/10 under setting [1] is given as 32^3) nm. The compound further showed a Δλ (Table 1, |λDMF-λdioxane|) of 16 nm.

Compound `CCCN1C(=O)C(=Cc2cnc(N(C)C)s2)C(C)=C(C#N)C1=O` [Example 6] had a ε (Table 1) of 62860 L/mol/cm. The compound further showed a λmax (Table 1, in dioxane) of 502 nm. Also, the λ1/2-λ1/10 under setting [1] is 33^3) nm.

In the case of `CCCCN(CCCC)c1ccc(C=C2C(=O)OC(C)(C)OC2=O)o1` [Example 8], the ε (Table 1) is 70880 L/mol/cm. Where the note is “Table 1, in dioxane”, this compound had a λmax of 472 nm. Further, the λ1/2-λ1/10 under setting [1] is reported as 32^3) nm. Moreover, the Δλ (Table 1, |λDMF-λdioxane|) is given as 5 nm.

For the setting “Table 1”, `CCCCN(CCCC)c1ccc(C=C2C(=O)N(C)C(=O)N(C)C2=O)o1` [Example 9] had a ε of 117700 L/mol/cm. In addition, the λmax (Table 1, in DMF) is on record as 490^6) nm.

As for `CCCCN(CCCC)c1ccc(C=C2C(=O)N(C)C(=O)C(C#N)=C2C)o1` [Example 10], the ε (Table 1) was 106640 L/mol/cm. The compound further came in with a λmax (Table 1, in dioxane) of 539 nm.

`CCCCN(CCCC)c1ncc(C=C2C(=O)N(CC)C(=O)C(C#N)=C2C)s1` [Example 13]: where the note is “Table 1”, the ε turned out to be 78400 L/mol/cm. For the setting “Table 1, in dioxane”, this compound displayed a λmax of 508 nm.

Where the note is “Table 1”, `CCCCN(CCCC)c1ccc(C=C2C(=O)N(CCOC)C(=O)C(C#N)=C2C)s1` [Example 14] showed a ε of 112260 L/mol/cm. Under “Table 1, in dioxane”, this compound yielded a λmax of 535 nm. The λ1/2-λ1/10 under setting [2] is given as 13^4) nm.

With `CCCCCCCCCCCCN1C(=O)C(=Cc2ccc(N(C)C)o2)C(=O)N(C)C1=O` [Example 15], the ε (Table 1) was 53360 L/mol/cm. For the same compound, the λmax (Table 1, in dioxane) was 483 nm.

On to `CCCCCCN1C(=O)C(=Cc2ccc(N(C)C)o2)C(C)=C(C#N)C1=O` [Example 16], for which the ε (Table 1) turned out to be 128960 L/mol/cm. The compound further gave a λmax (Table 1, in dioxane) of 535 nm. This compound showed a Δλ (Table 1, |λDMF-λdioxane|) of 1.3 nm.

In the case of `CCN1C(=O)C(=Cc2ccc(N3CCCC3)o2)C(C)=C(C#N)C1=O` [Example 17], the ε (Table 1) is 115603 L/mol/cm. Besides, the λmax (Table 1, in DMF) is on record as 536^6) nm. The same compound displayed a Δλ (Table 1, |λDMF-λdioxane|) of 2 nm.

Under “Table 1”, `CCCCN(CCCC)c1ccc(C=C2C(=O)N(CCC)C(=O)C(C#N)=C2C)s1` [Example 18] yielded a ε of 112260 L/mol/cm. For the same compound, under “Table 1, in dioxane”, the λmax was 535 nm. In addition, the λ1/2-λ1/10 under setting [2] is 13^4) nm.

In turn, `CCCCN(CCCC)c1ccc(C=C2C(=O)N(C)C(=S)N(C)C2=O)o1` [Example 29] returned a ε (Table 1) of 153420 L/mol/cm. The λmax (Table 1, in dioxane) came out at 508 nm. Besides, under setting [2], the λ1/2-λ1/10 is given as 11^4) nm.

In turn, `CCN(CC)c1ncc(C=C2C(=O)c3ccccc3C2=O)s1` [Example 32] gave a ε (Table 1) of 62026 L/mol/cm. Further, the λmax (Table 1, in dioxane) worked out at 472 nm. Besides, the λ1/2-λ1/10 under setting [1] was 42^3) nm.

As for `CCN(CC)c1ncc(C=C(C#N)[n+]2ccccc2)s1.[O-][Cl+3]([O-])([O-])[O-]` [Example 33], where the note is “Table 1”, the ε amounted to 28360 L/mol/cm. Further, the λmax (Table 1, in methanol) was 432^5) nm.

Regarding `CCCOC(=O)C(C#N)=CC=C1N(C)c2ccccc2C1(C)C` [Example 38], under “Table 2”, the ε stood at 60390 L/mol/cm. Under “Table 2, in dioxane”, this compound showed a λmax of 429 nm. Under setting [3], the λ1/2-λ1/10 is reported as 30^3) nm. Where the note is “Table 2, |λDMF - λdioxane|”, this compound came in with a Δλ of 7 nm.

`CN1C(=CC=C2C(=O)c3ccccc3C2=O)C(C)(C)c2ccccc21` [Example 39]: the ε (Table 2) came to 102220 L/mol/cm. For the same compound, under “Table 2, in dioxane”, the λmax is given as 487 nm. Moreover, under setting [3], the λ1/2-λ1/10 is on record as 35^3) nm. In addition, the Δλ (Table 2, |λDMF - λdioxane|) amounted to 6 nm.

The compound `CN1C(=CC=C2C(=O)OC(C)(C)OC2=O)C(C)(C)c2ccccc21` [Example 40] gave a ε (Table 2) of 76260 L/mol/cm. Moreover, where the note is “Table 2, in dioxane”, the λmax came to 448 nm. In addition, the λ1/2-λ1/10 under setting [3] is recorded as 27^3) nm. Under “Table 2, |λDMF - λdioxane|”, the Δλ is reported as 2 nm.

Regarding `CN1C(=CC=C2C(=O)CC(C)(C)CC2=O)C(C)(C)c2ccccc21` [Example 41], for the setting “Table 2”, the ε is 76130 L/mol/cm. Also, the λmax (Table 2, in dioxane) is reported as 469 nm. Besides, under setting [3], the λ1/2-λ1/10 is reported as 28^3) nm. This compound showed a Δλ (Table 2, |λDMF - λdioxane|) of 3 nm.

Take `CCCCN1C(=O)C(=CC=C2N(C)c3ccccc3C2(C)C)C(C)=C(C#N)C1=O` [Example 42]: under “Table 2”, the ε worked out at 113100 L/mol/cm. This compound also gave a λmax (Table 2, in dioxane) of 520 nm. Moreover, under setting [4], the λ1/2-λ1/10 is 12^4) nm. Besides, the Δλ (Table 2, |λDMF - λdioxane|) was 2 nm.

`COc1ccc2c(c1)C(C)(C)C(=CC(C#N)=C(C#N)C#N)N2C` [Example 43] gave a ε (Table 2) of 31345 L/mol/cm. The compound also displayed a λmax (Table 2, in dioxane) of 511 nm. In addition, the λ1/2-λ1/10 under setting [3] is 36^3) nm. The compound also yielded a Δλ (Table 2, |λDMF - λdioxane|) of 6 nm.

In turn, `CC1=C(C#N)C(=O)N(C2CCCCC2)C(=O)C1=CC=C1N(C)c2ccccc2C1(C)C` [Example 45] yielded a ε (Table 2) of 55910 L/mol/cm. This compound gave a λmax (Table 2, in dioxane) of 519 nm. The λ1/2-λ1/10 under setting [4] is on record as 11^4) nm.

For the compound `COc1ccc2c(c1)C(C)(C)C(=CC=C1C(=O)N(c3ccc(C4CCS(=O)(=O)C4)cc3)N=C1C)N2C` (stereo not drawn) [Example 50], the ε (Table 2) was 47640 L/mol/cm. This compound also gave a λmax (Table 2, in dioxane) of 473 nm.

The compound `CCOC(=O)C1=NN(c2ccccc2)C(=O)C1=CC=C1N(C)c2ccc(C(=O)OC)cc2C1(C)C` [Example 52] came in with a ε (Table 2) of 62720 L/mol/cm. Under “Table 2, in dioxane”, this compound had a λmax of 496 nm.

`CCCCN1C(=O)C(=CC=C2N(C)c3ccc(C(=O)OC)cc3C2(C)C)C(=O)c2ccccc21` [Example 53] gave a ε (Table 2) of 110332 L/mol/cm. This compound also returned a λmax (Table 2, in dioxane) of 500 nm.

Turning to `CCCCN1C(=O)C(=CC=C2Oc3ccccc3N2CC)C(C)=C(C#N)C1=O` [Example 55], where the note is “Table 2”, the ε was 109380 L/mol/cm. Moreover, the λmax (Table 2, in methylene chloride) is recorded as 490^6) nm. The same compound showed a Δλ (Table 2, |λDMF - λdioxane|) of 5 nm.

Take `CN1C(=CC=C(C#N)c2nc3ccccc3s2)C(C)(C)c2ccccc21` [Example 57]: the ε (Table 2) turned out to be 57230 L/mol/cm. Also, for the setting “Table 2, in dioxane”, the λmax stood at 462 nm. For the same compound, the λ1/2-λ1/10 under setting [3] is 34^3) nm.

As to `COC(=O)c1ccc2c(c1)C(C)(C)C(=CC=C(C#N)[n+]1ccccc1)N2C.[O-][Cl+3]([O-])([O-])[O-]` [Example 58], the ε (Table 2) is 36010 L/mol/cm. In addition, where the note is “Table 2, in methanol”, the λmax was 459^5) nm.

`CCN1CCCC1=CC=C(C#N)[n+]1ccccc1.[O-][Cl+3]([O-])([O-])[O-]` [Example 59] had a ε (Table 2) of 24400 L/mol/cm. The λmax (Table 2, in methanol) is reported as 462^5) nm.

Where the note is “Table 2”, `CCN1CCCC1=CC=C1SC(=S)N(CC)C1=O` [Example 60] returned a ε of 75006 L/mol/cm. This compound yielded a λmax (Table 2, in dioxane) of 466 nm. For the same compound, under setting [4], the λ1/2-λ1/10 is recorded as 10^4) nm.

`CCN1C(=O)C(=CC=C2N(C)c3ccccc3C2(C)C)SC1=S` [Example 61]: for the setting “Table 2”, the ε was found to be 36610 L/mol/cm. Also, under “Table 2, in methylene chloride”, the λmax was 512^6) nm. In addition, the λ1/2-λ1/10 under setting [4] is 25^4) nm. Moreover, the Δλ (Table 2, |λmethylene chloride-λmethanol|) is 36^7) nm.

For `CCOC(=O)C(C#N)=c1[nH]c(=O)c(=CC=C2N(C)c3ccccc3C2(C)C)c(C)c1C(=O)OCC` [Example 64], the λmax (Table 2, in methanol) is reported as 577^5) nm.

In the case of `CCOC(=O)C(C#N)=c1[nH]c(=O)c(=CC=C2N(C)c3ccc(C(=O)OC)cc3C2(C)C)c(C)c1C(=O)OCC` [Example 65], the ε (Table 2) came out at 142900 L/mol/cm. Besides, the λmax (Table 2, in methanol) was 587^5) nm.

`Cc1c(C#N)c(=C(C#N)C#N)[nH]c(=O)c1=CC=C1N(C)c2ccccc2C1(C)C` [Example 66]: the λmax (Table 2, in methanol) is 546^5) nm.
